# Test results from PubChem BioAssay (NCI).
#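 Values below derive from 48-hour exposures of cells grown in 96-well plates, with endpoints linearly interpolated between the two concentrations bracketing the appropriate inhibition level. Abbreviation: GI50, concentration required for 50% inhibition of growth. The concentration for full growth arrest is given as TGI.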
# Experiments:
# Assay in all cases: inhibition of tumour cell growth, NCI panel, 48 h
# SNB-75 CNS = test system: SNB-75 CNS
# T-47D breast = test system: T-47D breast
# MCF7 breast = test system: MCF7 breast
# LOX IMVI melanoma = test system: LOX IMVI melanoma
# SN12C renal = test system: SN12C renal
# OVCAR-4 ovarian = test system: OVCAR-4 ovarian
# UACC-257 melanoma = test system: UACC-257 melanoma
# SK-MEL-2 melanoma = test system: SK-MEL-2 melanoma
# MOLT-4 leukemia = test system: MOLT-4 leukemia
# HOP-92 NSCLC = test system: HOP-92 NSCLC
# OVCAR-3 ovarian = test system: OVCAR-3 ovarian
# SF-539 CNS = test system: SF-539 CNS
# MDA-MB-435 = test system: MDA-MB-435
# 786-0 renal = test system: 786-0 renal
# DU-145 prostate = test system: DU-145 prostate
# CAKI-1 renal = test system: CAKI-1 renal
# HOP-62 NSCLC = test system: HOP-62 NSCLC
# HCC-2998 colon = test system: HCC-2998 colon
# A549 NSCLC = test system: A549 NSCLC
# HCT-15 colon = test system: HCT-15 colon
# SK-OV-3 ovarian = test system: SK-OV-3 ovarian
# HS 578T breast = test system: HS 578T breast
# SW-620 colon = test system: SW-620 colon
# A498 renal = test system: A498 renal
# U251 CNS = test system: U251 CNS
# NCI-H460 lung = test system: NCI-H460 lung
# MDA-MB-231 breast = test system: MDA-MB-231 breast
# HCT-116 colon = test system: HCT-116 colon
# SF-268 CNS = test system: SF-268 CNS
# PC-3 prostate = test system: PC-3 prostate
# NCI-H226 lung = test system: NCI-H226 lung
# SNB-19 CNS = test system: SNB-19 CNS
# OVCAR-8 ovarian = test system: OVCAR-8 ovarian
# EKVX NSCLC = test system: EKVX NSCLC
# UACC-62 melanoma = test system: UACC-62 melanoma
# KM12 colon = test system: KM12 colon
# SK-MEL-28 melanoma = test system: SK-MEL-28 melanoma
# NCI-H23 lung = test system: NCI-H23 lung
# HT29 colon = test system: HT29 colon
# IGROV1 ovarian = test system: IGROV1 ovarian
# RPMI-8226 leukemia = test system: RPMI-8226 leukemia
# M14 melanoma = test system: M14 melanoma
# RXF 393 renal = test system: RXF 393 renal
# UO-31 renal = test system: UO-31 renal
# TK-10 renal = test system: TK-10 renal
# BT-549 breast = test system: BT-549 breast
# CCRF-CEM leukemia = test system: CCRF-CEM leukemia
# ACHN renal = test system: ACHN renal
# HL-60(TB) leukemia = test system: HL-60(TB) leukemia
# NCI/ADR-RES ovarian = test system: NCI/ADR-RES ovarian
# K-562 leukemia = test system: K-562 leukemia
# SF-295 CNS = test system: SF-295 CNS
# OVCAR-5 ovarian = test system: OVCAR-5 ovarian
# SK-MEL-5 melanoma = test system: SK-MEL-5 melanoma
# MALME-3M melanoma = test system: MALME-3M melanoma
smiles,measurement,setting,value
IP(CCCSc1n(Cc2ccc3ccccc3c2)c(-c2ccccc2)c(-c2ccccc2)[n+]1Cc1ccc2ccccc2c1)(c1ccccc1)(c1ccccc1)c1ccccc1,GI50,SNB-75 CNS,2.03 µM
same,TGI,SNB-75 CNS,9.21 µM
same,GI50,T-47D breast,2.89 µM
same,TGI,T-47D breast,14.1 µM
same,GI50,MCF7 breast,2.77 µM
same,TGI,MCF7 breast,9 µM
same,GI50,LOX IMVI melanoma,1.94 µM
same,TGI,LOX IMVI melanoma,4.49 µM
same,GI50,SN12C renal,4.07 µM
same,TGI,SN12C renal,17.4 µM
same,GI50,OVCAR-4 ovarian,3.16 µM
same,TGI,OVCAR-4 ovarian,22.5 µM
same,GI50,UACC-257 melanoma,2.89 µM
same,TGI,UACC-257 melanoma,9.64 µM
same,GI50,SK-MEL-2 melanoma,2.05 µM
same,TGI,SK-MEL-2 melanoma,5.41 µM
same,GI50,MOLT-4 leukemia,3.05 µM
same,TGI,MOLT-4 leukemia,11.5 µM
same,GI50,HOP-92 NSCLC,1.69 µM
same,TGI,HOP-92 NSCLC,6.48 µM
same,GI50,OVCAR-3 ovarian,2.81 µM
same,TGI,OVCAR-3 ovarian,8.86 µM
same,GI50,SF-539 CNS,3.08 µM
same,TGI,SF-539 CNS,9.57 µM
same,GI50,MDA-MB-435,2.84 µM
same,TGI,MDA-MB-435,11 µM
same,GI50,786-0 renal,5.81 µM
same,TGI,786-0 renal,40.1 µM
same,GI50,DU-145 prostate,3.57 µM
same,TGI,DU-145 prostate,23.9 µM
same,GI50,CAKI-1 renal,9.96 µM
same,TGI,CAKI-1 renal,31.7 µM
same,GI50,HOP-62 NSCLC,3.3 µM
same,TGI,HOP-62 NSCLC,23.4 µM
same,GI50,HCC-2998 colon,3.74 µM
same,TGI,HCC-2998 colon,16.3 µM
same,GI50,A549 NSCLC,4.49 µM
same,TGI,A549 NSCLC,36.1 µM
same,GI50,HCT-15 colon,19.6 µM
same,TGI,HCT-15 colon,> 100 µM
same,GI50,SK-OV-3 ovarian,3.9 µM
same,TGI,SK-OV-3 ovarian,38.4 µM
same,GI50,HS 578T breast,3.04 µM
same,TGI,HS 578T breast,14.1 µM
same,GI50,SW-620 colon,3.56 µM
same,TGI,SW-620 colon,21.9 µM
same,GI50,A498 renal,3.88 µM
same,TGI,A498 renal,29.4 µM
same,GI50,U251 CNS,3.26 µM
same,TGI,U251 CNS,> 100 µM
same,GI50,NCI-H460 lung,2.53 µM
same,TGI,NCI-H460 lung,6.25 µM
same,GI50,MDA-MB-231 breast,2.81 µM
same,TGI,MDA-MB-231 breast,9.58 µM
same,GI50,HCT-116 colon,2.99 µM
same,TGI,HCT-116 colon,10.6 µM
same,GI50,SF-268 CNS,3.42 µM
same,TGI,SF-268 CNS,20.3 µM
same,GI50,PC-3 prostate,2.84 µM
same,TGI,PC-3 prostate,10.8 µM
same,GI50,NCI-H226 lung,12.2 µM
same,TGI,NCI-H226 lung,98.2 µM
same,GI50,SNB-19 CNS,2.39 µM
same,TGI,SNB-19 CNS,16.7 µM
same,GI50,OVCAR-8 ovarian,5.62 µM
same,TGI,OVCAR-8 ovarian,> 100 µM
same,GI50,EKVX NSCLC,4.43 µM
same,TGI,EKVX NSCLC,43.1 µM
same,GI50,UACC-62 melanoma,2.35 µM
same,TGI,UACC-62 melanoma,7.91 µM
same,GI50,KM12 colon,2.45 µM
same,TGI,KM12 colon,6.23 µM
same,GI50,SK-MEL-28 melanoma,3.25 µM
same,TGI,SK-MEL-28 melanoma,15.9 µM
same,GI50,NCI-H23 lung,2.34 µM
same,TGI,NCI-H23 lung,7.13 µM
same,GI50,HT29 colon,2.52 µM
same,TGI,HT29 colon,7.14 µM
same,GI50,IGROV1 ovarian,2.96 µM
same,TGI,IGROV1 ovarian,> 100 µM
same,GI50,RPMI-8226 leukemia,2.49 µM
same,TGI,RPMI-8226 leukemia,6.81 µM
same,GI50,M14 melanoma,3.34 µM
same,TGI,M14 melanoma,23 µM
same,GI50,RXF 393 renal,2.8 µM
same,TGI,RXF 393 renal,9.44 µM
same,GI50,UO-31 renal,5.55 µM
same,TGI,UO-31 renal,> 100 µM
same,GI50,TK-10 renal,8.12 µM
same,TGI,TK-10 renal,59 µM
same,GI50,BT-549 breast,2.6 µM
same,TGI,BT-549 breast,7.25 µM
same,GI50,CCRF-CEM leukemia,3.11 µM
same,TGI,CCRF-CEM leukemia,12 µM
same,GI50,ACHN renal,20.2 µM
same,TGI,ACHN renal,96.4 µM
same,GI50,HL-60(TB) leukemia,1.9 µM
same,TGI,HL-60(TB) leukemia,3.86 µM
same,GI50,NCI/ADR-RES ovarian,17.3 µM
same,TGI,NCI/ADR-RES ovarian,> 100 µM
same,GI50,K-562 leukemia,3.05 µM
same,TGI,K-562 leukemia,10.4 µM
same,GI50,SF-295 CNS,3.3 µM
same,TGI,SF-295 CNS,16.2 µM
same,GI50,OVCAR-5 ovarian,3.59 µM
same,TGI,OVCAR-5 ovarian,17.4 µM
same,GI50,SK-MEL-5 melanoma,2.42 µM
same,TGI,SK-MEL-5 melanoma,5.91 µM
same,GI50,MALME-3M melanoma,2.37 µM
same,TGI,MALME-3M melanoma,8.23 µM
